For data set [1] the following is noted: acidic pH near 4.5. The source says: A Buffer may be used to control the pH of the nasal spray solution at, or near 4.5. […] Also, the local pH value inside the nasal cavity directly influences the rate and extent of drug absorption. […] Additionally, maintaining pH at or above 4.0 helps to reduce local nasal tract irritation. The buffer is optional.
A short description of data set [2]: Open-label absolute bioavailability / pharmacokinetic study of intranasal ketamine in healthy volunteers. Type of data set: in vivo, human. The following applies: for bioavailability / Absolute Bioavailability (%): relative to IV, dose-corrected ratio of least squares geometric mean AUC(inf); for AUC(0-t): read-out: AUC (0-4 hr). The protocol:
This was an open-label study in 25 healthy volunteers. Subjects received single doses of ketamine by intravenous (IV) injection (20 mg), intramuscular (IM) injection (20 mg), or intranasal (IN) administration (20 mg, 40 mg and 80 mg).
Blood samples for the measurement of plasma concentrations of (R)- and (S)-ketamine and (R)- and (S)-norketamine were collected pre-dose and at 0.033, 0.083, 0.167, 0.25, 0.333, 0.5, 0.75, 1, 1.25, 2, 2.5, 3, 4, 6, 8, 12, 16, and 24 hours post-dose for each study period.
All estimates for the parent and metabolite were consistent within each formulation or dose for the racemate, (R)-, and (S)-enantiomers. After IN administration, the estimates were slightly higher for the metabolite than the parent.

In the next data set the target is NMDA receptors. Conditions: cited from earlier work.
The mark [3] stands for this setting: Dose 10 mg, hydro-alcoholic composition, minimum-maximum.
Setting [4] is: Dose 20 mg, hydro-alcoholic composition, minimum-maximum.
[5] abbreviates: human, plasma, other: intranasal, Dose 10 mg, hydro-alcoholic composition, minimum-maximum.
The mark [6] stands for this setting: human, plasma, other: intranasal, Dose 20 mg, hydro-alcoholic composition, minimum-maximum.
Setting [7] is: human, plasma, other: intranasal, IN administration of racemic ketamine 20 mg.
The mark [8] stands for this setting: human, plasma, other: intranasal, IN administration of racemic ketamine 40 mg.
The mark [9] stands for this setting: human, plasma, other: intranasal, IN administration of racemic ketamine 80 mg.
Where [10] appears, read: IN administration of racemic ketamine 20 mg.
Setting [11] is: IN administration of racemic ketamine 40 mg.
[12] abbreviates: IN administration of racemic ketamine 80 mg.
Where [13] appears, read: human, plasma, inhaled or intranasal, 20 mg, AUC (0-1 hr), intranasal, effective amount 20 mg.
[14] abbreviates: human, plasma, inhaled or intranasal, 20 mg, intranasal, effective amount 20 mg.
Setting [15] is: human, plasma, inhaled or intranasal, intranasal, effective amount 20 mg.
The mark [16] stands for this setting: Dose 40 mg, hydro-alcoholic composition, minimum-maximum.
The mark [17] stands for this setting: human, plasma, other: intranasal, Dose 40 mg, hydro-alcoholic composition, minimum-maximum.

Read-outs that look alike come from different tables or passages of the source.

On to `CNC1(c2ccccc2Cl)CCCCC1=O.Cl` (stereo not drawn) [Es/ketamine HCl], for which the stability of solution entry in data set [1] is recorded as “better stability”.

With `CN[C@@]1(c2ccccc2Cl)CCCCC1=O` [(R)-Ketamine], the “AUC(0-1 hr)” value is reported as 15.9-70.8 hr′ng/mL in data set [2] (setting [3]) and 40.5-129 hr′ng/mL in data set [2] (setting [4]). Besides, the “AUC(0-4 hr)” value in data set [2] (setting [3]) was 33.6-118 hr′ng/mL; in data set [2] (setting [4]), 93.0-251 hr′ng/mL. In addition, the values for the Cmax in data set [2] (setting [5]) and in data set [2] (setting [6]) were 26.5 to 155 ng/mL and 53.4 to 206 ng/mL, respectively. The Tmax fell in the range of 4.98 to 30 min in data set [2] (setting [5]) and 10 to 30 min in data set [2] (setting [6]). The bioavailability (commonly dose-corrected exposure relative to a reference, in per cent) was determined as 81.6% in data set [2] (setting [7]), 68.6% in data set [2] (setting [8]) and 51.1% in data set [2] (setting [9]). In addition, the Ki (commonly the dissociation constant of the complex between target and ligand, obtained from inhibition or displacement) on NMDA receptors is 1100 nM.

Turning to `N[C@]1(c2ccccc2Cl)CCCCC1=O` [(S)-Norketamine], the figures for the “Absolute Bioavailability (%)” value in data set [2] (setting [10]), in data set [2] (setting [11]) and in data set [2] (setting [12]) were 92.4%, 77.8% and 54.9%, respectively.

Regarding `CN[C@]1(c2ccccc2Cl)CCCCC1=O` [(S)-Ketamine], the “AUC(0-1 hr)” value in data set [2] (setting [3]) was 12.8-55.8 hr′ng/mL; in data set [2] (setting [4]) it was 30.9-96.7 hr′ng/mL; in data set [2] (human, plasma, inhaled or intranasal, 10 mg, AUC (0-1 hr), intranasal, effective amount 10 mg), 12.8 to 55.8 ng·h/mL; in data set [2] (setting [13]), 30.9 to 96.7 ng·h/mL. Further, the “AUC(0-4 hr)” value in data set [2] (setting [3]) was 26.4-90.4 hr′ng/mL; in data set [2] (setting [4]), 66.9-181 hr′ng/mL. Also, the AUC(0-t) in data set [2] (human, plasma, inhaled or intranasal, 10 mg, intranasal, effective amount 10 mg) was in the range of 26.4 to 90.4 ng·h/mL; in data set [2] (setting [14]), 66.9 to 181 ng·h/mL. Also, the Tmax in data set [2] (human, plasma, inhaled or intranasal, intranasal, effective amount 10 mg) fell in the range of 5 to 19.8 min; in data set [2] (setting [15]) it was 10 to 30 min; in data set [2] (setting [5]) it was 5 to 20 min; in data set [2] (setting [6]), 10 to 30 min. In addition, the values for the Cmax in data set [2] (setting [5]) and in data set [2] (setting [6]) were 21.4 to 125 ng/mL and 41.3 to 161 ng/mL, respectively. For the same compound, the bioavailability was 82.4% in data set [2] (setting [7]), 68.9% in data set [2] (setting [8]) and 51.5% in data set [2] (setting [9]). Moreover, the Ki on NMDA receptors was 3200 nM.

Turning to `CNC1(c2ccccc2Cl)CCCCC1=O` (racemic) [(RS)-Ketamine, (2-(2-chlorophenyl)-2-(methylamino)-cyclohexanone)], the “AUC(0-1 hr)” value in data set [2] (setting [4]) is 28.7-127 hr′ng/mL; in data set [2] (setting [16]), 71.4-225 hr′ng/mL; in data set [2] (setting [13]), 28.7 to 127 ng·h/mL; in data set [2] (human, plasma, inhaled or intranasal, 40 milligrams, AUC (0-1 hr), intranasal, effective amount 40 milligrams), 71.4 to 225 ng·h/mL. Moreover, the figures for the “AUC(0-4 hr)” value in data set [2] (setting [4]) and in data set [2] (setting [16]) were 60.0-209 hr′ng/mL and 160-433 hr′ng/mL, respectively. For the same compound, the AUC(0-t) in data set [2] (setting [14]) fell in the range of 60 to 209 ng·h/mL; in data set [2] (human, plasma, inhaled or intranasal, 40 milligrams, intranasal, effective amount 40 milligrams) it was 160 to 433 ng·h/mL. Moreover, the Tmax in data set [2] (setting [15]) lay in the range of 4.98 to 30 min; in data set [2] (human, plasma, inhaled or intranasal, intranasal, effective amount 40 milligrams) it was 10 to 30 min; in data set [2] (setting [6]) it was 4.98 to 30 min; in data set [2] (setting [17]), 10 to 30 min. Besides, the maximum concentration (Cmax) (commonly the highest concentration seen after dosing) in data set [2] (setting [6]) is 48 to 280 ng/mL; in data set [2] (setting [17]) it was 94.7 to 367 ng/mL. Moreover, the bioavailability in data set [2] (setting [7]) turned out to be 82.1%; in data set [2] (setting [8]) it was 69.1%; in data set [2] (setting [9]), 51.8%.

Turning to `NC1(c2ccccc2Cl)CCCCC1=O` (racemic) [(RS)-Norketamine], the “Absolute Bioavailability (%)” value in data set [2] (setting [10]) came to 94.4%; in data set [2] (setting [11]), 78.8%; in data set [2] (setting [12]) it was 54.8%.

For `N[C@@]1(c2ccccc2Cl)CCCCC1=O` [(R)-Norketamine], the “Absolute Bioavailability (%)” value in data set [2] (setting [10]) came to 90.7%; in data set [2] (setting [11]), 77.8%; in data set [2] (setting [12]), 54.3%.

Source of the values: patent US20250241873A1, “KETAMINE NASAL SPRAY FORMULATION AND METHODS OF USE” (INESKET LLC, priority 2024, published 2025).
